In patent publication US20230167073A1 (Teijin Pharma Limited, priority 2020, published 2023):

molecular target: T1, Human TRPC6 (Homo sapiens, UniProt Q9Y210); assay: Evaluation of TRPC6 channel inhibitory activity (1), FLIPR Calcium 5 Assay Kit, OAG stimulation (Compound Nos. 1-1293); type: cell-based; conditions: Human TRPC6 stably-expressing cells, OAG 30 μM, FLIPR Calcium 5 Assay Kit; read-out: Inhibitory activity (pIC50 class) (converted)
T1 construct: expressed in transfected cells
T1 sequence (Q9Y210 1-931): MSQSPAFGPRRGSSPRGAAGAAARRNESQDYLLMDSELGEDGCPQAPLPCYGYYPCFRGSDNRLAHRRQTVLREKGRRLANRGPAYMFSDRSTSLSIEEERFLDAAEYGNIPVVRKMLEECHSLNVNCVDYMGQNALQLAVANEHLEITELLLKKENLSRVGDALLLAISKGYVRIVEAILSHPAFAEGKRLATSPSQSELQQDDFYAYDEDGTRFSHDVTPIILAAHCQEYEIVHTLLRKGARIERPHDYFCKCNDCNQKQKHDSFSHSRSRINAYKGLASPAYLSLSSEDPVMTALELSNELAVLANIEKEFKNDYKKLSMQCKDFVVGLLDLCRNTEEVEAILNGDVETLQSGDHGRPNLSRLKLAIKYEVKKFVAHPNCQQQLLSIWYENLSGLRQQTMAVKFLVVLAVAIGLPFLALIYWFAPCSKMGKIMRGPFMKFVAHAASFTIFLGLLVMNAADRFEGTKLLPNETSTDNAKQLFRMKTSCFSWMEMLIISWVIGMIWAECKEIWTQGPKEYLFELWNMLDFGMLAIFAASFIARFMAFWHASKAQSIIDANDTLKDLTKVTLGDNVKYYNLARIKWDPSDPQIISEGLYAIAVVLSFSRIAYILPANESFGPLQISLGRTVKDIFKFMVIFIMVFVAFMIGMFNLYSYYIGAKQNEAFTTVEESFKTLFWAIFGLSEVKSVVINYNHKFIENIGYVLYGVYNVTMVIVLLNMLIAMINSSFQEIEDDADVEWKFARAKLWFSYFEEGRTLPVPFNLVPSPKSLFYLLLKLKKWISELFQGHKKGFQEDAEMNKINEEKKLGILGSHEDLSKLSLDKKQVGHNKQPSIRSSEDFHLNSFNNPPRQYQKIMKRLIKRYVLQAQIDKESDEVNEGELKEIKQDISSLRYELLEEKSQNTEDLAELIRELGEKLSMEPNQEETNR
Procedure, shortened: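 Calcium influx read by FLIPR fluorescence in cells stably expressing human TRPC6, dye-loaded 30 min. Compounds preincubated 20 min, then OAG stimulation at 30 μM final. Inhibition fitted by four-parameter logistic regression to give pIC50, reported as +/++/+++ categories.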

IC50 [nM]	SMILES
10 to 1000	Cn1nc(C2CC2)cc1Oc1cc(C#N)ccc1-c1ccc(CCNCC#N)cn1 [Compound 286, 4-[5-[2-(cyanomethylamino)ethyl]pyridin-2-yl]-3-(5-cyclopropyl-2-methylpyrazol-3-yl)oxybenzonitrile]
< 10	Cn1nc(C2CCC2)cc1Oc1cc(C#N)ccc1-c1cnc(C(O)CN)cn1 (stereo not drawn) [Compound 287, 4-[5-(2-amino-1-hydroxyethyl)pyrazin-2-yl]-3-(5-cyclobutyl-2-methylpyrazol-3-yl)oxybenzonitrile]
> 1000	Cn1nc(-c2ccccc2)cc1Oc1cc(C#N)ccc1-c1cc2c(cn1)CNCC2 [Compound 291, 3-(2-methyl-5-phenylpyrazol-3-yl)oxy-4-(5,6,7,8-tetrahydro-2,7-naphthylidin-3-yl)benzonitrile]
10 to 1000	Cn1nc(-c2ccccc2)cc1Oc1cc(C#N)ccc1-c1ncc2c(n1)CCNC2 [Compound 292, 3-(2-methyl-5-phenylpyrazol-3-yl)oxy-4-(5,6,7,8-tetrahydropyrido[4,3-d]pyrimidin-2-yl)benzonitrile]
< 10	CCc1cc(Oc2cc(C#N)ccc2-c2ncc(CCN)cn2)n(C)n1 [Compound 293, 4-[5-(2-aminoethyl)pyrimidin-2-yl]-3-(5-ethyl-2-methylpyrazol-3-yl)oxybenzonitrile]

More lines, now with the values behind:

SMILES	IC50 [nM]
Cc1nc(Oc2cc(C#N)ccc2-n2cc([C@@H](O)CNCC#N)cn2)cc(-c2ccccc2)n1 [Compound 279, 4-[4-[(1R)-2-(cyanomethylamino)-1-hydroxyethyl]pyrazol-1-yl]-3-(2-methyl-6-phenylpyrimidin-4-yl)oxybenzonitrile]	> 1000
Cn1nc(C2CCC2)cc1Oc1cc(C#N)ccc1-c1ccc(C(O)CNCC#N)cn1 (stereo not drawn) [Compound 280, 4-[5-[2-(cyanomethylamino)-1-hydroxyethyl]pyridin-2-yl]-3-(5-cyclobutyl-2-methylpyrazol-3-yl)oxybenzonitrile]	10 to 1000
Cn1nc(C2CCC2)cc1Oc1cc(C#N)ccc1-c1ncc(C(O)CNCC#N)cn1 (stereo not drawn) [Compound 281, 4-[5-[2-(cyanomethylamino)-1-hydroxyethyl]pyrimidin-2-yl]-3-(5-cyclobutyl-2-methylpyrazol-3-yl)oxybenzonitrile]	> 1000
N#Cc1ccc(-n2cc(CCN)cn2)c(Oc2cnnc(N3CCOCC3)c2)c1 [Compound 282, 4-[4-(2-aminoethyl)pyrazol-1-yl]-3-(6-morpholin-4-ylpyridazin-4-yl)oxybenzonitrile]	10 to 1000
N#Cc1ccc(-n2cc(CCN)cn2)c(Oc2cnnc(N3CCCCC3)c2)c1 [Compound 283, 4-[4-(2-aminoethyl)pyrazol-1-yl]-3-(6-piperidin-1-ylpyridazin-4-yl)oxybenzonitrile]	10 to 1000
N#Cc1ccc(-n2cc(CCN)cn2)c(Oc2cnnc(N3CCCC3)c2)c1 [Compound 284, 4-[4-(2-Aminoethyl)pyrazol-1-yl]-3-(6-pyrrolidin-1-ylpyridazin-4-yl)oxybenzonitrile]	10 to 1000
Cn1nc(-c2ccccn2)cc1Oc1cc(C#N)ccc1-c1ncc(CCN)cn1 [Compound 285, 4-[5-(2-aminoethyl)pyrimidin-2-yl]-3-(2-methyl-5-pyridin-2-ylpyrazol-3-yl)oxybenzonitrile]	< 10
CCc1cc(Oc2cc(C#N)ccc2-c2ccc(CCN)cn2)n(C)n1 [Compound 288, 4-[5-(2-aminoethyl)pyridin-2-yl]-3-(5-ethyl-2-methylpyrazol-3-yl)oxybenzonitrile]	< 10
Cn1nc(-c2ccccc2)cc1Oc1cc(C#N)ccc1-c1ccc(CN)cn1 [Compound 289, 4-[5-(aminomethyl)pyridin-2-yl]-3-(2-methyl-5-phenylpyrazol-3-yl)oxybenzonitrile]	< 10
Cn1nc(-c2ccccc2)cc1Oc1cc(C#N)ccc1-c1cnc(CN)cn1 [Compound 290, 4-[5-(aminomethyl)pyrazin-2-yl]-3-(2-methyl-5-phenylpyrazol-3-yl)oxybenzonitrile]	10 to 1000
